Source: patent US12708604B2, “Lyophilized preparation of prostaglandin E1 methyl ester for injection and production and use thereof” (Xi'an Hanfeng Pharmaceutical Co., Ltd., priority 2018, dated 2026)
Like-named read-outs stand apart in the source and are kept apart here.

Experiments:
[1] = system: isolated rabbit blood vessels (thoracic aorta vascular ring); assay: Vasodilation test in vitro (isolated aortic ring); assay type: cell-based, New Zealand white rabbits; details: Oryctolagus cuniculus; cumulative addition 0.05-25.6 nM; read-out: diastolic efficacy on isolated rabbit blood vessels, EC50
Protocol: In the experiment, rabbits were selected to prepare isolated aortic ring specimens: New Zealand white rabbits, male, weighing (2.5±0.3) kg. The rabbit was stunned with a blunt instrument, fixed on the rabbit dissecting table, and the thoracic aorta was quickly separated, and placed in a petri dish filled with saturated Kerbs solution (containing NaCl 6.9 g, KCl 0.35 g, MgSO4.7H2O 0.29 g, KH2PO4 0.16 g, NaHCO3 2.1 g, CaCl2 0.28 g, glucose 2 g per 1000 mL) at 37° C. and continuously introduced with mixed gas (95% O2, 5% CO2). The remaining blood in the blood vessel was squeezed out, and the peripheral fat and connective tissue were carefully peeled off, and it was cut into 0.5 cm long arterial rings for use. […]
BL-420S biological function experiment system (Chengdu Techman Technology) was used to record the variation of vascular ring tension. After the vascular ring contraction was stable, prostaglandin E1 and the compounds of the Examples were accumulatively added to successively increase the final mass concentration of prostaglandin E1 in the bath tube to 0.05, 0.1, 0.2, 0.4, 0.8, 1.6, 3.2, 6.4, 12.8, 25.6 nM, and the diastolic efficacies of the vascular ring were recorded.

[2] = system: ADP-induced platelet aggregation; assay: Anti-platelet aggregation test in vitro (ADP-induced, rat platelet-rich plasma); assay type: cell-based, SD rats; details: for inhibition at 100 µM: Platelet, 2 μL of 100 μM compound in 300 μL rat PRP, read-out: inhibition rate on ADP-induced platelet aggregation; for onset of anti-aggregation effect after addition to PRP: immediately after addition
Protocol: When healthy adult SD rats were anesthetized by intraperitoneal injection of 10% chloral hydrate, fresh whole blood was collected from the abdominal aorta and added to a centrifuge tube anticoagulated with 3.8% sodium citrate solution, and centrifuged at 900 rpm for 10 minutes to remove the upper platelet-rich plasma (PRP) for use. The tube having PRP removed was further centrifuged at 4000 rpm for 10 minutes, and the upper clarified plasma (PPP) was removed for use. In the experiment, Techlink model LBY-NJ4 4-channel platelet aggregator was used to determine the anticoagulant efficacy of each compound.
Into a sample cup containing 300 μL of PRP, 2 μL of 100 μM PGE1, Compound 1 of Example, Compound 2 of Example and methanol (solvent) were first added. After incubated for different periods (0, 1, 2, 4, 7, 10, 15 min), […], of aggregation inducer 180 μM ADP solution was added. The aggregation rate of each sample was measured, and the inhibitory rate of the compound on ADP-induced platelet aggregation was calculated. Inhibition rate %=(solvent aggregation rate−compound aggregation rate)/solvent aggregation rate×100%

[3] = 10 min, after 10 minutes of incubation

SMILES	EC50 [1]	inhibition at 100 µM [2, 3]	onset of anti-aggregation effect after addition to PRP ([2]; rat PRP)	duration of anticoagulant effect relative to PGE1 ([2]; rat PRP, versus PGE1)	inhibition at 100 µM ([2]; 4 min, after 4 minutes of incubation)
CCCCC[C@H](O)/C=C/[C@H]1[C@H](O)CC(=O)[C@@H]1CCCCCCC(=O)OC [Compound 1]	1.09 nM	43.7%	take effect immediately	2 times	–
CCCCC[C@H](O)/C=C/[C@H]1[C@H](O)CC(=O)[C@@H]1CCCCCCC(=O)O [PGE1, Prostaglandin E1]	9.77 nM	–	take effect immediately	–	4.93%
CCCCC[C@H](O)/C=C/[C@H]1[C@H](O)CC(=O)[C@@H]1CCCCCCC(=O)OCC [Compound 2]	–	51.9%	does not take effect immediately	–	–
